Assay results reported in ChEMBL document CHEMBL4303082, “A Large-scale Drug Repositioning Survey for SARS-CoV-2 Antivirals” (2020).
Square brackets hold non-standard residues; d marks the D form. Peptide text beside a SMILES is read from it. * marks the point of attachment. ξ: configuration not given here. ξF = NC(Cc1ccccc1)C(=O)O; Cbz = O=C(OCc1ccccc1)*; CHN2 = [N-]=[N+]=C*

Each compound was assayed on SARS-CoV-2 (assay: Determination of antiviral efficacy in high-content imaging assay in Vero E6 cells infected with SARS-CoV-2 (USA-WA1/2020 isolate) at MOI 0.75 after 24 hrs). Conditions: Severe acute respiratory syndrome coronavirus 2, Vero C1008, 24 h.
Assay type: functional, organism-based, Chlorocebus sabaeus

Row | Compound | EC50
1 | CC(C)(C)NCc1ccc(Nc2ccnc3cc(Cl)ccc23)cc1O [GSK-369796] | 1200 nM
2 | Fc1ccc(-c2ccc(CN3CCN(c4cccc5ccoc45)CC3)[nH]2)cc1 [ELOPIPRAZOLE] | 1100 nM
3 | COc1ccc2cc1Oc1ccc(cc1)C[C@H]1c3cc(c(OC)cc3CCN1C)Oc1c(OC)c(OC)cc3c1[C@H](C2)N(C)CC3 [FANCHININ] | 1100 nM
4 | C1=C(c2ccc(CN3CCCCC3)cc2)N2CCN=C2c2ccccc21 | 750 nM
5 | CC(C)(O)c1ccc2c(c1)/C(=C/CCN1CC[C@](O)(c3ccc(Cl)cc3)C(C)(C)C1)c1cccnc1CO2 | 140 nM
6 | CCNC/C=C\CNCCCCNCCCCNC/C=C\CNCC | 250 nM
7 | COc1cccc2c(N3CCc4ccccc4C3C)nc(Nc3ccc(F)cc3C)nc12 (stereo unspecified) | 950 nM
8 | C[C@@H]1CN(c2ncc(C(O)CO)cc2Cl)CCN1c1nc2c(-c3cc(F)c(F)c(F)c3)cc(C(F)(F)F)cc2[nH]1 (stereo partly specified) | 950 nM
9 | CC(C)CC(NC(=O)OCc1ccccc1)C(=O)NC(C(=O)NCC(=O)C=[N+]=[N-])C(C)C (stereo not drawn) (Cbz-Leu-Val-Gly-CHN2; configuration not given here) | 190 nM
10 | CCC(CC)COC(=O)[C@H](C)N[P@](=O)(OC[C@H]1O[C@@](C#N)(c2ccc3c(N)ncnn23)[C@H](O)[C@@H]1O)Oc1ccccc1 | 620 nM
11 | CN(C)CCn1c(C(=O)N2CCN(c3ccccc3Cl)CC2)c(C(c2ccc(O)cc2)c2ccc(O)cc2)c2ccccc21 | 1200 nM
12 | CC[C@H](NC(=O)[C@H](CS(=O)(=O)CC1CC1)N[C@@H](c1ccc(F)cc1)C(F)(F)F)C(=O)C(=O)NC1CC1 | 300 nM
13 | C[C@@H]1CS/C(=N\NC(=O)C(=O)[C@@H](NC(=O)C2CCCCCC2)C2CCOCC2)N1C | 500 nM
14 | Cc1cccc(/C=N/Nc2cc(N3CCOCC3)nc(OCCc3ccccn3)n2)c1 [APILIMOD] | 23 nM
15 | CC(C)[C@H](NC(=O)OCc1ccccc1)C(=O)NC(C=O)Cc1ccccc1 (stereo partly drawn) (Cbz-Val-[ξF]-aldehyde) | 220 nM
16 | COc1cc2c(cc1N1C[C@@H](C)N[C@@H](C)C1)N(C(=O)c1ccc(-c3ccc(-c4noc(C)n4)cc3C)cc1)CC2 | 1200 nM
